Measured values taken from patent US20210369684A1 (MOUNT TAM THERAPEUTICS, INC., priority 2018, published 2021).
Where “and” joins values, the source holds several entries; their conditions need not be identical. Equal entries are not always repeated.

Test: Brain concentrations after IP administration to mice (LC-MS/MS)
Assay type: in vivo, mouse
Settings: for Formula II Concentrations in Mouse Brain / Formula II Concentrations in Mouse Brain, Mean: Day 3, 24.0 h
Experimental: To carry out these assays using brain homogenates, 20 uL of samples and matrix calibration standards into wells of a 96-well plate, and 10 uL of blank matrix allocated for matrix blanks and control blanks. 160 uL internal standard was then added to all samples except matrix blanks, and 160 uL ACN added to matrix blanks. Samples were then vortexed for 5 minutes and centrifuge for 5 minutes at >3500 rpm. 150 uL of the supernatant was then transferred to a new 96-well plate, and the plates blown down to dryness at 35° C., reconstituted with 90 uL of 70:30 water:acetonitrile (ACN) solution, covered and vortexed prior to analysis. LC and MS conditions were the same as described above for the whole blood analysis. […] The compound of Formula II was administered to mice at 2 mg/kg or 10 mg/kg for three days and the concentration of the compound in brain determined.

For CO[C@H]1C[C@@H]2CC[C@@H](C)[C@@](O)(C2)C(=O)C(=O)N2CCCC[C@H]2C(=O)O[C@H]([C@H](C)C[C@H]2C[C@H]3C[C@@H]2C[C@@H]3O)CC(=O)[C@H](C)/C=C(\C)[C@@H](O)[C@@H](OC)C(=O)[C@H](C)C[C@H](C)/C=C/C=C/C=C/1C [Formula II, C37-[(1R,2S,4R,5S)-5-hyhroxybicyclo[2.2.1]heptane] rapamycin], the “concentrations in brain over time (in words)” value (2 mg/kg or 10 mg/kg IP QD for three days, mice) was “sufficient concentrations in brain overtime”, the “Formula II Concentrations in Mouse Brain” value (Group 1, 2 mg/kg IP QD x 3 days, individual animals 7, 8, 9) was 33.7 ng/g and 27.6 ng/g and 31.4 ng/g and the “Formula II Concentrations in Mouse Brain, Mean” value (Group 1, 2 mg/kg IP QD x 3 days) was 30.9 ng/g. The “Formula II Concentrations in Mouse Brain” value (Group 2, 10 mg/kg IP QD x 3 days, individual animals 10, 11, 12) was 121 ng/g and 136 ng/g and 224 ng/g and the “Formula II Concentrations in Mouse Brain, Mean” value (Group 2, 10 mg/kg IP QD x 3 days) was 160 ng/g.
